Assay results taken from patent US10207988B2, “Methods and compositions for treatment of cancer and autoimmune disease” (THE JACKSON LABORATORY, priority 2011, dated 2019).

Tests used:
[1] = tested on: primary chronic lymphocytic leukemia (CLL) cells; assay: viable cell counts of primary human CLL cells treated with DIDS; type: cell-based; settings: 150 μM or 600 μM DIDS, days 2, 4, 6, 8, relative to untreated control
Procedure: Blood samples (8-16 mL) from patients were collected via peripheral bleed into BD Vacutainer CPT tubes (BD, Franklin Lakes, N.J.), centrifuged to sequester red blood cells below the separation gel according to manufacturer instructions, and transported within 24 hours to the Jackson Laboratory. Upon receipt, peripheral blood mononuclear cells (PBMC) were isolated from samples according to manufacturer specifications. White blood cell (WBC) counts from 14 primary chronic lymphocytic leukemia (CLL) samples from human patients were calculated from complete blood count (CBC) with differentials. Calculated values were compared with empirical cell counts following cell separation and overnight shipping. […] The primary CLL samples (WBC) were diluted to standard concentration and 3.0×10^6 cells were seeded in cultures. Replicate cultures were supplemented with 0 μM (n=5), 150 μM DIDS (n=4), or 600 μM DIDS (n=2). Viable cell counts were determined by manual counting using a hemacytometer on days 2, 4, 6, and 8 of culture.

[2] = tested on: phosphor-H2AX foci in AID+ and AID− primary human CLL cells; assay: phospho-H2AX foci in primary human CLL cells treated with DIDS; type: cell-based; settings: 30 μM DIDS, 2 days in culture, AID+ versus AID− samples
Text: Primary human CLL patient derived cells were obtained from peripheral bleeds collected at the time of routine clinical monitoring. Primary peripheral blood samples were collected via routine venipuncture into BD Vacutainer CPT Cell Separation Tubes (Becton Dickinson). Samples were centrifuged to separate red blood cells (RBC) and then inverted to resuspend the monocuclear cells in their own plasma. Samples were stored overnight at the site of collection at room temperature then shipped via courier to the site of analysis. Each sample was tested for AID expression status by reverse transcription PCR (RT-PCR) to detect presence of the human AID mRNA (see Example 11). Samples were then divided into AID+ (those showing detectable levels of AID mRNA) and AID− (those showing no detectable AID mRNA above background) groups. Multiple independent cultures from different AID+ and AID− samples were initiated in standard RPMI-1640 medium containing 10% FBS plus either 0 or 30 μM DIDS. After 2 days in culture, cells from each culture/condition were fixed using paraformaldehyde, mounted on microscope coverslips, permeabilized by washing with weak detergent, and were processed for immunofluorescent detection of the DNA double strand break marker phosphor-H2AX (primary antibody: cat. No. A300-081A, Bethyl Laboratories; 1:400 dilution). […]

[3] = tested on: cells isolated from the spleens of wild type or AID knockout (−/−) mice; assay: splenocyte viability, Guava EasyCyte Flow Cytometer Assay; type: cell-based, mouse; settings: 150 μM DIDS, stimulated with anti-CD40 antibodies and IL-4
Procedure: Cells isolated from the spleens of wild-type (WT) or AICDA knock-out (−/−) mice were stimulated with anti-CD40 antibodies and IL-4 on day 0 and day 2. DIDS was added on day 0 and day 2 at concentrations of 0 or 150 μM. WT cells stimulated with anti-CD40 antibodies plus IL-4 and treated with DIDS are shown as filled boxes, AICDA−/− cells stimulated with anti-CD40 antibodies plus IL-4 and treated with DIDS as circle; WT cells stimulated with anti-CD40 antibodies plus IL-4 are shown as open diamonds; and AICDA−/− cells stimulated with anti-CD40 plus IL-4 antibodies as open triangles. The total number of viable cells was determined every other day. Days are shown on the x-axis and the fraction of viable cells is shown on the y-axis.
Cells were isolated from the spleens of wild type or AID knockout (−/−) mice, cultured and stimulated with anti-CD40 antibodies and IL-4 on day 0 and day 2. DIDS was added on day 0 and day 2 at concentrations of 0 or 150 μM. The total number of viable cells was determined every other day using Guava EasyCyte Flow Cytometer Assay.

[4] = tested on: phospho-H2AX foci in mouse primary splenocytes (AID+/+ and AID−/−); assay: phospho-H2AX foci in activated splenocytes exposed to DIDS; type: cell-based; settings: 150 micromolar DIDS
Text: Mouse primary splenocytes isolated from 8-12 week old wild type (AID+/+) and AID-knockout (AID−/−) mice as described in Example 1 were exposed to 150 micromolar DIDS, and activated by anti-CD40 antibody plus interleukin-4, fixed and stained for the DNA break marker phospho-H2AX and for nuclear DNA using the fluorescent DNA staining dye 4′,6-diamidino-2-phenylindole (DAPI). In FIG. 16A the fraction of cells containing 0, 1-2, or greater than 2 phospho-H2AX positive foci was quantified for AID+/+ (filled bars) and AID−/− (open bars) cells. […] In FIG. 16B the proportion of phospho-H2AX positive cells (filled bars) versus phospho-H2AX negative cells (open bars) was quantified for AID+/+ in comparison to AID−/− cultures. […] In FIG. 16C the number of foci per cell was quantified for DIDS-treated AID+/+ (filled bars) versus AID−/− (open bars) cells. Data are expressed as the absolute number of cells (y-axis) harboring the indicated number of phosphor-H2AX foci (from 0 to >20; x-axis).

O=S(=O)([O-])c1cc(N=C=S)ccc1/C=C/c1ccc(N=C=S)cc1S(=O)(=O)[O-].[Na+].[Na+] [DIDS, 4,4′diisothiocyanostilbene-2,2′-disulfonic acid]
viable cell counts [1]: significant decline in viable cell counts | phosphor-H2AX foci per cell (DNA double strand break marker) [2]: inhibits repair of AID-mediated genomic DNA double strand breaks (DSBs) | total number of viable cells [3]: lower viability | proportion of phospho-H2AX positive cells ([4]; AID+/+ in comparison to AID−/− cultures): higher percentage of phospho-H2AX positive cells | fraction of cells with greater than 2 phospho-H2AX foci ([4]; AID+/+ versus AID−/− cells): significant higher fraction of cells with greater than 2 foci
